Experimental data reported in patent US20080311092A1, “Murine Stem Cells and Applications Thereof” (priority 2005, published 2008).
“Also recorded” adds a separate entry of the source. Read-outs that look alike come from different tables or passages of the source.

Tests used:
[1] = test system: diffuse large B-cell lymphoma; assay: Doxorubicin treatment of Sca1/BCL6 cancer stem cell model mice, cell counting; type: in vivo, mouse
Method: DXR (doxorubicin) was dosed at 7 mg/kg. […] Drugs were dissolved in water and delivered intravenously. Water was used as placebo.

[2] = test system: lung cancer; assay: Doxorubicin treatment of Sca1/hKRAS CSC model lung cancer mice, survival study; type: in vivo, mouse; settings: for Outcome of treatment in the lung cancer CSC mouse model: Sca1/hKRAS mice
Method: DXR (doxorubicin) was dosed at 7 mg/kg. The administration scheme was every 7th day, 3 times—q7dx3—for a duration of 4-5 weeks. Drugs were dissolved in water and delivered intravenously. Water was used as placebo.

[3] = test system: human lymphomas; settings: humans; cited from earlier work
[4] = test system: human lung cancer; settings: humans; cited from earlier work
[5] = test system: B cell acute lymphoblastic leukaemia (B-ALL); settings: BCR-ABLp210 mouse model, not stem-cell targeted; cited from earlier work
[6] = test system: human CML; settings: cited from earlier work; for Outcome of treatment in human CML: humans
[7] = test system: CSC that express BCR-ABL; assay: Ganciclovir treatment of PLy6-HSVtk-IRES-BCRABLp210 (Sca1-IRES-HVTK-BCR-ABL p210) mice; type: in vivo, mouse; settings: for Disappearance of cancers / tumour burden on GCV treatment: PLy6-HSVtk-IRES-BCRABLp210 mice, 100% with tumours at start, 60 mice injected daily with GCV (100 mg/kg/day i.p.)
Method: PLy6-HSVtk-IRES-BCRABLp210 mice were used to test the effectiveness of GCV-induced cell death in CSC that express BCR-ABL. GCV, after preliminary testing, was administered at a dose of 100 mg/kg/day by i.p. injection for 14 days. This dose has been reported to kill cells expressing HSV-tk in transgenic mice (Bush TG. Cell 1998, 93: 189-201). Dosing started when the mice were leukaemic. A control group was given injections of normal saline.
(§1) Ganciclovir: stock solutions were prepared following the SIGMA indications. The regimen was 100 mg/kg/day by intraperitoneal injection for 14 days. The placebo was an equal volume of diluent water/normal saline.
30 mice were used as a control and were subjected daily with saline solution whereas the 60 remaining mice were injected daily with GCV as described in method section.
(§2) The mice were treated either with ganciclovir (GCV) or with placebo, as described under materials and methods. For each mouse model, 60 mice were injected daily with ganciclovir, and 30 mice were used as a control and injected daily with saline (placebo).

[8] = test system: Sca1-positive cells; assay: Ganciclovir treatment of Sca1-BCL6-IRES-HVTK mice; type: in vivo, mouse
Method: as §1
CSC mouse cancer models (Sca1-HVTK-IRES-BCR-ABLp210 and Sca1-BCL6-IRES-HVTK mice) were used to address the question of whether the selective ablation of Sca1-positive cells is effective in the therapy of cancer.
as §2

COc1cccc2c1C(=O)c1c(O)c3c(c(O)c1C2=O)C[C@@](O)(C(=O)CO)C[C@@H]3O[C@H]1C[C@H](N)[C@H](O)[C@H](C)O1 [doxorubicin]
Outcome of treatment of diffuse large B-cell lymphoma in CSC mice ([1]; Sca1/BCL6 CSC mouse model): ineffective; also recorded: unsuccessful
Change in number of B cells ([1]; Sca1/BCL6 mice, 3-5 month course of doxorubicin treatment): decreased or increased slightly
Factor by which the number of CSC increased ([1]; Sca1/BCL6 mice, over three months of doxorubicin treatment): 7-8
Survival: none of the treated mice survived longer than ([2]; CSC model lung cancer mice, doxorubicin 7 mg/kg i.v. q7dx3): ≤ 20 weeks
Outcome of treatment in the lung cancer CSC mouse model [2]: ineffective; also recorded: unsuccessful
Outcome of treatment in the lung cancer CSC mouse model ([2]; listed as Doxorubicin): also unsuccessful
Outcome of treatment in human lymphoma / DLBCL patients [3]: virtually all human lymphoma patients treated with doxorubicin relapse
Outcome of treatment of human lung cancer [4]: unsuccessful

Cc1ccc(NC(=O)c2ccc(CN3CCN(C)CC3)cc2)cc1Nc1nccc(-c2cccnc2)n1 [Gleevec™, imatinib]
Outcome of treatment in conventional mouse B-ALL model [5]: cures the cancer
Effect on leukaemic stem cells in humans ([6]; Michor F et al. Nature (2005)): does not deplete leukaemic stem cells
Outcome of treatment in human CML [6]: only gives symptomatic relief; also recorded: typically relapse
Outcome of treatment in human CML ([6]; listed as Gleevec): provides symptomatic relief

Nc1nc(O)c2ncn(COC(CO)CO)c2n1 [ganciclovir]
Tumour recurrence during further monitoring ([7]; 8 weeks of further monitoring): did not recur
Time of treatment after which tumours disappeared completely ([7]; 60 Sca1-IRES-HVTK-BCR-ABL p210 mice treated with ganciclovir): 8 weeks
Disappearance of cancers / tumour burden on GCV treatment ([7]; listed as GCV): cancers disappeared completely
Disappearance of cancers / tumour burden on GCV treatment ([7]; listed as Gancyclovir): complete reduction of tumour burden
Tumour recurrence (CML and solid tumours) after GCV treatment ([7]; additional 3 months of observation after cancers disappeared): no tumour recurrence was observed
Time to elimination of all tumours ([8]; Sca1-BCL6-IRES-HVTK mice, 60 mice injected daily with ganciclovir): 10 weeks
Tumour recurrence during additional monitoring ([8]; additional 11 weeks of monitoring): no tumour recurrence was observed
